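Step 1: Grow cells in 96-well plates. Step 2: Expose to compound for 48 hours at 5 concentrations. Step 3: Interpolate endpoints linearly; if unreached, use highest concentration. Here, GI50 denotes the concentration required for 50% inhibition of growth.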 Activity calls are given as the source filed them. No stated cut-off is given here; in the data, active = GI50 up to about 1.1 µM and inactive = higher.
Legend:
Assay in all cases: NCI-60 cell line screen, 48 h
SNB-19 = tested on: SNB-19
NCI-H23 = tested on: NCI-H23
A549 = tested on: A549
TK-10 = tested on: TK-10
OVCAR-8 = tested on: OVCAR-8
CCRF-CEM = tested on: CCRF-CEM
NCI-H522 = tested on: NCI-H522
LOX IMVI = tested on: LOX IMVI
IGROV-1 = tested on: IGROV-1
U-251 = tested on: U-251
SK-MEL-28 = tested on: SK-MEL-28
SNB-75 = tested on: SNB-75
SN12C = tested on: SN12C
HCT-116 = tested on: HCT-116
HOP-62 = tested on: HOP-62
HT-29 = tested on: HT-29
A498 = tested on: A498

Measured: GI50

N#Cc1c(-c2ccco2)cc(-c2ccccc2)nc1O
inactive: SNB-19 > 100 µM | NCI-H23 > 100 µM | A549 > 100 µM | TK-10 > 100 µM | OVCAR-8 > 100 µM | CCRF-CEM > 100 µM | NCI-H522 > 100 µM | LOX IMVI > 100 µM | IGROV-1 > 100 µM | U-251 > 100 µM | SK-MEL-28 > 100 µM | SNB-75 56.4 µM | SN12C > 100 µM | HCT-116 > 100 µM | HOP-62 > 100 µM | HT-29 > 100 µM | A498 > 100 µM

CN/N=C(\C)C(CN1CCCCC1)C(C1=C(O)c2ccccc2OC1)c1ccccc1 (stereo unspecified)
inactive: SNB-19 > 100 µM | NCI-H23 > 100 µM | A549 > 100 µM | TK-10 > 100 µM | OVCAR-8 > 100 µM | CCRF-CEM 69.2 µM | NCI-H522 > 100 µM | LOX IMVI > 100 µM | IGROV-1 78.3 µM | U-251 91.2 µM | SK-MEL-28 > 100 µM | SNB-75 > 100 µM | SN12C > 100 µM | HCT-116 > 100 µM | HOP-62 > 100 µM | HT-29 > 100 µM | A498 > 10 µM

COC(=O)C1=C(C(=O)OC)SC(=CC#CC=C2SC(C(=O)OC)=C(C(=O)OC)S2)S1
inactive: SNB-19 6.41 µM | NCI-H23 5.81 µM | A549 25.5 µM | TK-10 9.06 µM | OVCAR-8 5.04 µM | CCRF-CEM > 100 µM | NCI-H522 24.4 µM | LOX IMVI 9.71 µM | IGROV-1 18.2 µM | U-251 16.1 µM | SK-MEL-28 18.4 µM | SNB-75 7 µM | SN12C 13.5 µM | HCT-116 11.7 µM | HOP-62 3.96 µM | HT-29 24.9 µM | A498 19.4 µM

CNC(=O)CN(CC(=O)NC)C(=O)NC
inactive: SNB-19 > 100 µM | NCI-H23 > 100 µM | A549 > 100 µM | TK-10 > 100 µM | OVCAR-8 > 100 µM | CCRF-CEM > 100 µM | NCI-H522 > 100 µM | LOX IMVI > 100 µM | IGROV-1 > 100 µM | U-251 > 100 µM | SK-MEL-28 > 100 µM | SNB-75 > 100 µM | HOP-62 > 100 µM | HT-29 > 100 µM | A498 > 100 µM

Cc1cc2c(cc1Br)C1(C)CCC(C)C1(C)O2 (stereo unspecified)
inactive: SNB-19 36 µM | NCI-H23 25.5 µM | A549 36.5 µM | TK-10 > 100 µM | OVCAR-8 29.6 µM | CCRF-CEM 22.1 µM | LOX IMVI 18.6 µM | IGROV-1 47.6 µM | U-251 21.8 µM | SK-MEL-28 38.4 µM | SNB-75 36.6 µM | SN12C 24.9 µM | HCT-116 14 µM | HOP-62 30.3 µM | HT-29 30.6 µM | A498 34.6 µM

O=C1c2ccoc2C(=O)c2oc(=O)ccc21
inactive: SNB-19 16 µM | NCI-H23 2 µM | A549 20.3 µM | TK-10 > 45.1 µM | OVCAR-8 6.35 µM | CCRF-CEM 5.57 µM | NCI-H522 1.86 µM | LOX IMVI 2.88 µM | IGROV-1 19.6 µM | U-251 8.15 µM | SK-MEL-28 5.43 µM | SNB-75 6.41 µM | SN12C 11.1 µM | HCT-116 5.31 µM | HOP-62 > 46.1 µM | HT-29 36.4 µM | A498 > 59.3 µM

N/N=C1\C(=O)N(CCc2ccccc2)C(=O)C1C(=O)NCCc1ccccc1 (stereo unspecified)
inactive: SNB-19 > 100 µM | NCI-H23 > 100 µM | A549 > 100 µM | TK-10 > 100 µM | CCRF-CEM > 100 µM | NCI-H522 > 100 µM | LOX IMVI > 100 µM | IGROV-1 > 100 µM | U-251 > 100 µM | SK-MEL-28 > 100 µM | SNB-75 > 100 µM | SN12C > 100 µM | HCT-116 > 100 µM | HT-29 > 100 µM

CC(C)OP(=O)(NC(=S)c1ccccc1)OC(C)C
inactive: SNB-19 > 100 µM | NCI-H23 > 100 µM | A549 92 µM | TK-10 > 100 µM | OVCAR-8 > 100 µM | CCRF-CEM 74.5 µM | LOX IMVI > 100 µM | IGROV-1 > 100 µM | U-251 > 100 µM | SK-MEL-28 > 100 µM | SNB-75 > 100 µM | SN12C 95.1 µM | HCT-116 > 100 µM | HT-29 43.5 µM | A498 43 µM

CN1C(=O)n2c(nc3ccccc32)C(N=[N+]=[N-])(N=[N+]=[N-])C1=O (stereo unspecified)
inactive: SNB-19 > 100 µM | NCI-H23 > 100 µM | A549 > 100 µM | TK-10 > 100 µM | OVCAR-8 > 100 µM | CCRF-CEM 68.9 µM | NCI-H522 > 100 µM | LOX IMVI 77.3 µM | IGROV-1 > 100 µM | U-251 > 100 µM | SK-MEL-28 > 100 µM | SNB-75 57.3 µM | HCT-116 > 100 µM | HOP-62 > 100 µM | HT-29 > 100 µM | A498 > 100 µM

CC(C)C(=O)NS(=O)(=O)c1ccccc1
inactive: SNB-19 > 100 µM | NCI-H23 > 100 µM | A549 > 100 µM | TK-10 > 100 µM | OVCAR-8 > 100 µM | CCRF-CEM > 100 µM | NCI-H522 > 100 µM | LOX IMVI > 100 µM | IGROV-1 > 100 µM | U-251 > 100 µM | SK-MEL-28 > 100 µM | SNB-75 > 100 µM | SN12C > 100 µM | HCT-116 > 100 µM | HOP-62 > 100 µM | HT-29 > 100 µM | A498 > 100 µM

CCCCCCC(=O)C/C(CCC(=O)N(Cc1ccccc1)Cc1ccccc1)=N\Nc1ccc([N+](=O)[O-])cc1[N+](=O)[O-]
inactive: SNB-19 > 100 µM | NCI-H23 38.7 µM | A549 46.1 µM | TK-10 > 100 µM | OVCAR-8 54.7 µM | CCRF-CEM 17.3 µM | NCI-H522 23.7 µM | LOX IMVI 33.3 µM | IGROV-1 > 100 µM | U-251 54.1 µM | SK-MEL-28 99.3 µM | SNB-75 39.1 µM | SN12C 56.1 µM | HCT-116 35.1 µM | HOP-62 > 100 µM | HT-29 89.9 µM | A498 62.8 µM

N#C/N=C(/NCCc1c[nH]c2ccccc12)Oc1ccccc1
inactive: SNB-19 93.5 µM | NCI-H23 > 100 µM | A549 60.4 µM | TK-10 84.5 µM | OVCAR-8 > 100 µM | CCRF-CEM 21.9 µM | LOX IMVI 77.4 µM | IGROV-1 > 100 µM | U-251 > 100 µM | SK-MEL-28 > 100 µM | SNB-75 43 µM | SN12C > 100 µM | HCT-116 52.5 µM | HOP-62 > 100 µM | HT-29 34.8 µM

COC(=O)c1cc(O)ccc1NC(=O)c1ccc(O)cc1
inactive: SNB-19 > 100 µM | NCI-H23 > 100 µM | A549 > 100 µM | TK-10 82.2 µM | OVCAR-8 > 100 µM | CCRF-CEM > 100 µM | NCI-H522 41.4 µM | LOX IMVI > 100 µM | IGROV-1 > 100 µM | U-251 > 100 µM | SK-MEL-28 > 100 µM | SNB-75 > 100 µM | HCT-116 > 100 µM | HOP-62 > 100 µM | HT-29 > 100 µM

COc1c2nc(CCl)[nH]c(=O)c2c(OC)c2nc(CCl)[nH]c(=O)c12
inactive: SNB-19 > 100 µM | NCI-H23 > 100 µM | A549 > 100 µM | TK-10 > 100 µM | OVCAR-8 > 100 µM | CCRF-CEM > 100 µM | NCI-H522 > 100 µM | LOX IMVI > 100 µM | IGROV-1 > 100 µM | U-251 > 100 µM | SK-MEL-28 > 100 µM | SNB-75 > 100 µM | SN12C > 100 µM | HCT-116 > 100 µM | HOP-62 > 100 µM | HT-29 > 100 µM

COc1ccc2c3c(coc13)C(CCC(=O)O)CC2 (stereo unspecified)
inactive: SNB-19 > 100 µM | NCI-H23 > 100 µM | A549 > 100 µM | TK-10 > 100 µM | OVCAR-8 > 100 µM | LOX IMVI > 100 µM | IGROV-1 > 100 µM | U-251 > 100 µM | SK-MEL-28 > 100 µM | SNB-75 56.6 µM | SN12C > 100 µM | HCT-116 > 100 µM | HOP-62 > 100 µM | HT-29 > 100 µM | A498 > 100 µM

CC(C)c1cccc(C(C)C)c1NC(=S)NN=C1C=C(C(C)(C)C)C(=O)C(C(C)(C)C)=C1
inactive: SNB-19 22.3 µM | NCI-H23 16.9 µM | A549 19.9 µM | TK-10 30.4 µM | OVCAR-8 17.8 µM | CCRF-CEM 22.7 µM | LOX IMVI 18.2 µM | IGROV-1 26 µM | U-251 16.2 µM | SK-MEL-28 34.4 µM | SNB-75 21.2 µM | SN12C 22.2 µM | HCT-116 3.59 µM | HOP-62 16.5 µM | HT-29 33 µM | A498 17.9 µM

COc1cc2c(cc1OC)-c1cc3cc(OC)c(OC)cc3n1CC2
inactive: SNB-19 25.8 µM | NCI-H23 81.1 µM | A549 50.2 µM | TK-10 19.9 µM | OVCAR-8 24.1 µM | CCRF-CEM > 100 µM | NCI-H522 32.5 µM | IGROV-1 90.8 µM | U-251 37.7 µM | SK-MEL-28 34 µM | SNB-75 18.5 µM | SN12C > 100 µM | HCT-116 32.4 µM | HOP-62 31.6 µM | HT-29 16.6 µM | A498 14.4 µM

Reference: ChEMBL document CHEMBL1201862, “PubChem BioAssay data set” (2004)
